Drawing on US11857600B2, “GPCR heteromer inhibitors and uses thereof” (GPCR THERAPEUTICS, INC., priority 2017, dated 2024), this text covers IC50 for one compound.

Common to all, as to format: cell-based
The target of one experiment is CXCR4-CALCR heteromer (Homo sapiens, UniProt P30988+P61073). Nature of the experiment: Calcium mobilization assay, enhanced signaling of CXCR4-CALCR heteromer in MDA-MB-231 cells. The conditions noted are these: CXCR4 inhibitor only; CXCL12 20 nM and calcitonin 100 nM; read-out: IC50 of Ca2+ response, CALCR inhibitor: None. The protocol:
(§1) Inhibitors were treated 30 min before agonist stimulation. Ca2+ mobilization was measured as described in FIG. 5, and IC50 values were calculated using GraphPad Prism software.

Another experiment deals with T1, CXCR4-MLNR heteromer (Homo sapiens, UniProt O43193+P61073).
T1 construct: expressed in transfected cells
As to the kind of experiment: Calcium mobilization assay, enhanced signaling of CXCR4-MLNR heteromer in MDA-MB-231 cells. The conditions noted are these: CXCR4 inhibitor only; CXCL12 20 nM and motilin 0.2 nM; read-out: IC50 of Ca2+ response, MLNR inhibitor: None. Here is the method:
as §1
Background: Calcium flux is commonly read through the fluorescence of an indicator in the cells.

For the next experiment, the target named is T2, CXCR4-HRH1 heteromer (Homo sapiens, UniProt P35367+P61073).
T2 construct: expressed in transfected cells
Nature of the experiment: Calcium mobilization assay, enhanced signaling of CXCR4-HRH1 heteromer in MDA-MB-231 cells. The conditions noted are these: CXCR4 inhibitor only; CXCL12 20 nM and Histamine 1 nM; read-out: IC50 of Ca2+ response, HRH1 inhibitor: None. The protocol: The efficiency of CXCR4 inhibitors in suppressing the enhanced signaling of CXCR4-HRH1 heteromer was measured in the absence or presence of the representative HRH1 inhibitors Hydroxyzine, Prometazine, or Cyproheptadine (Table 8). […] Inhibitors were treated 30 min before agonist stimulation. Ca2+ mobilization was measured as described in FIG. 5, and IC50 values were calculated using GraphPad Prism software.

A further experiment concerns the target T3, CXCR4-TACR3 heteromer (Homo sapiens, UniProt P29371+P61073).
T3 construct: expressed in transfected cells
Nature of the experiment: Calcium mobilization assay, enhanced signaling of CXCR4-TACR3 heteromer in MDA-MB-231 cells. The conditions noted are these: CXCR4 inhibitor only; CXCL12 20 nM and neurokinin B 0.3 nM; read-out: IC50 of Ca2+ response, TACR3 inhibitor: None. Here is the method: as §1

A further experiment deals with T4, CXCR4 (Homo sapiens, UniProt P61073).
T4 construct: expressed in transfected cells
As to the kind of experiment: Calcium mobilization assay in MDA-MB-231 cells expressing CXCR4 alone. The conditions noted are these: cells expressing CXCR4 alone; CXCR4 inhibitor only; stimulated with CXCL12 20 nM and Salmeterol 1 μM; read-out: CXCR4 IC50 of Ca2+ response. The protocol:
The cells were then stained with Cal-6 for 2 hours and stimulated with CXCR4 agonsit (CXCL12; 20 nM) and ADRB2 agonist (Salmeterol; 1 μM).

Experiment [1] concerns the target CXCR4-ADCYAP1R1 heteromer (Homo sapiens, UniProt P41586+P61073). Nature of the experiment: Calcium mobilization assay, enhanced signaling of CXCR4-ADCYAP1R1 heteromer in MDA-MB-231 cells. The conditions noted are these: CXCR4 inhibitor only; CXCL12 20 nM and PACAP-38 1 nM; read-out: IC50 of Ca2+ response, ADCYAP1R1 inhibitor: None. The protocol:
as §1

A further experiment concerns the target T5, CXCR4-ADRB2 heteromer (Homo sapiens, UniProt P07550+P61073).
T5 construct: expressed in transfected cells
As to the kind of experiment: Calcium mobilization assay, enhanced signaling of CXCR4-ADRB2 heteromer in MDA-MB-231 cells. As to conditions: CXCR4 inhibitor only.

The target of a further experiment is T6, CXCR4-EDNRB heteromer (Homo sapiens, UniProt P24530+P61073).
T6 construct: expressed in transfected cells
As to the kind of experiment: Calcium mobilization assay, enhanced signaling of CXCR4-EDNRB heteromer in MDA-MB-231 cells. As to conditions: CXCR4 inhibitor only; CXCL12 20 nM and BQ3020 0.5 nM; read-out: IC50 of Ca2+ response, EDNRB inhibitor: None. Here is the method: The efficiency of CXCR4 inhibitors in suppressing the enhanced signaling of CXCR4-EDNRB heteromer was measured in the absence or presence of the representative EDNRB inhibitors ambrisentan or bosentan (Table 12). […] Inhibitors were treated 30 min before agonist stimulation. Ca2+ mobilization was measured as described in FIG. 5, and IC50 values were calculated using GraphPad Prism software.

The target in another experiment is T7, CXCR4-C5AR1 heteromer (Homo sapiens, UniProt P21730+P61073).
T7 construct: expressed in transfected cells
Nature of the experiment: Calcium mobilization assay, enhanced signaling of CXCR4-C5AR1 heteromer in MDA-MB-231 cells. As to conditions: CXCR4 inhibitor only; CXCL12 20 nM and C5a 0.03 nM; read-out: IC50 of Ca2+ response, C5AR1 inhibitor: None. Here is the method:
as §1

Read-outs that look alike come from different tables or passages of the source. Where a SMILES comes first, the peptide text is derived from it. Bridges are numbered along the chain shown (N, C = ends). [ ]: non-standard residue; d: D form. The star is where a group is joined. 2Nal = N[C@@H](Cc1ccc2ccccc2c1)C(=O)O; Benzoyl(4-F) = O=C(c1ccc(F)cc1)*; Cit = NC(=O)NCCC[C@H](N)C(=O)O

T5 sequence (P61073 whole entry): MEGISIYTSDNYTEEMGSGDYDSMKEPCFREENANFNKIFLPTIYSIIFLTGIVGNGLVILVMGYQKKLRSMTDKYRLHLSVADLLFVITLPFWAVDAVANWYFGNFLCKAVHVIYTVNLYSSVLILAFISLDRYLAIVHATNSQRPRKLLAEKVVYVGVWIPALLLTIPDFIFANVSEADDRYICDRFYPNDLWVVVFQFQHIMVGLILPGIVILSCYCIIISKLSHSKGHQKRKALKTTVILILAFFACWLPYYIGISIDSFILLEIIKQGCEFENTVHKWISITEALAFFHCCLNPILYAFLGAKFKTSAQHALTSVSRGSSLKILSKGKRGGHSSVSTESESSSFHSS
T5 sequence (P07550 whole entry): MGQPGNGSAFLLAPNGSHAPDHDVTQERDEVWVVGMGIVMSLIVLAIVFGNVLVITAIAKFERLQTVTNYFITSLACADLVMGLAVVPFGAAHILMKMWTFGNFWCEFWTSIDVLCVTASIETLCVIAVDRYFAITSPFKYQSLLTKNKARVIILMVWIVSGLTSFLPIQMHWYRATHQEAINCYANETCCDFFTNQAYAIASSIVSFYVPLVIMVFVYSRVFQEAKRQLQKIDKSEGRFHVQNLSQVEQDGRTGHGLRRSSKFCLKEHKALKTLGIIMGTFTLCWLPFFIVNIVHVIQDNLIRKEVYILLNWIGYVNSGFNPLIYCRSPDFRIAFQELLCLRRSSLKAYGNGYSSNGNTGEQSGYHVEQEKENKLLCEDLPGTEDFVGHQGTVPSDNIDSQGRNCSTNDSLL
T4 sequence (P61073 whole entry): as the sequence (P61073 whole entry) above
T1 sequence (P61073 whole entry): as above
T1 sequence (O43193 whole entry): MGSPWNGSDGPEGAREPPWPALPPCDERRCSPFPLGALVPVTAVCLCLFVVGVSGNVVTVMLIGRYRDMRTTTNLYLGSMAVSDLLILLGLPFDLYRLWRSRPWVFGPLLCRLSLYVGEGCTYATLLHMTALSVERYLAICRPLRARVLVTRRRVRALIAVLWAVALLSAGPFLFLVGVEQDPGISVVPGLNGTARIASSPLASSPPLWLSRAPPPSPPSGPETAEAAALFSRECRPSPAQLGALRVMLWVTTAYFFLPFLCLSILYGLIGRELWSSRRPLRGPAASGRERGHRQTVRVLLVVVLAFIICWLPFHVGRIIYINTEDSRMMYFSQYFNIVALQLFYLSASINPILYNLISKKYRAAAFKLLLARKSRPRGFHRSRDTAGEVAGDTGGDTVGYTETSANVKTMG
Chain of CXCR4-CALCR heteromer (P61073 whole entry): as the sequence (P61073 whole entry) above
Chain of CXCR4-CALCR heteromer (P30988 25-474): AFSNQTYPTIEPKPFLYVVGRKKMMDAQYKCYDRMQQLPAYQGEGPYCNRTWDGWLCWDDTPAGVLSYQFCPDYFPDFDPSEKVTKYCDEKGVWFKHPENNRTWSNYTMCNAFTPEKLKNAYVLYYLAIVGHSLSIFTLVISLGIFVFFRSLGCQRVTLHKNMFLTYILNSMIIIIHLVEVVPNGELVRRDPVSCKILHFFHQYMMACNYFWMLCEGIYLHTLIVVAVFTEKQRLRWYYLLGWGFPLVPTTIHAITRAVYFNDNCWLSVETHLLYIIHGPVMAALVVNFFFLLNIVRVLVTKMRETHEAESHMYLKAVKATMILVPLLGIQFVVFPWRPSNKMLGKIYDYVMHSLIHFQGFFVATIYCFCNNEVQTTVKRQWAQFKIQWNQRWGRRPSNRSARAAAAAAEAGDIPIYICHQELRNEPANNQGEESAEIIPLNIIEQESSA
Chain of CXCR4-ADCYAP1R1 heteromer (P61073 whole entry): as the sequence (P61073 whole entry) above
Chain of CXCR4-ADCYAP1R1 heteromer (P41586 21-468): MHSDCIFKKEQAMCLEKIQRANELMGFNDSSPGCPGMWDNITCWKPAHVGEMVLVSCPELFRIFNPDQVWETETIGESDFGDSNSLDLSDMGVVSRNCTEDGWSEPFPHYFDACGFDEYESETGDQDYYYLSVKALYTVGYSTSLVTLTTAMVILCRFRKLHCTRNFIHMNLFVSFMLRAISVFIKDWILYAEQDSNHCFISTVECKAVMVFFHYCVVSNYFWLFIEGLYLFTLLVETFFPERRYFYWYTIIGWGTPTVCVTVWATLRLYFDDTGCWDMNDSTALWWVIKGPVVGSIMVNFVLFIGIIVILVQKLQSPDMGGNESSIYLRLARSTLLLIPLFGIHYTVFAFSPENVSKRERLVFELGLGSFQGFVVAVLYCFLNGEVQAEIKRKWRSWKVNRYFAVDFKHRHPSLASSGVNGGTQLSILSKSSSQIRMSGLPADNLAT
T2 sequence (P61073 whole entry): as the sequence (P61073 whole entry) above
T2 sequence (P35367 whole entry): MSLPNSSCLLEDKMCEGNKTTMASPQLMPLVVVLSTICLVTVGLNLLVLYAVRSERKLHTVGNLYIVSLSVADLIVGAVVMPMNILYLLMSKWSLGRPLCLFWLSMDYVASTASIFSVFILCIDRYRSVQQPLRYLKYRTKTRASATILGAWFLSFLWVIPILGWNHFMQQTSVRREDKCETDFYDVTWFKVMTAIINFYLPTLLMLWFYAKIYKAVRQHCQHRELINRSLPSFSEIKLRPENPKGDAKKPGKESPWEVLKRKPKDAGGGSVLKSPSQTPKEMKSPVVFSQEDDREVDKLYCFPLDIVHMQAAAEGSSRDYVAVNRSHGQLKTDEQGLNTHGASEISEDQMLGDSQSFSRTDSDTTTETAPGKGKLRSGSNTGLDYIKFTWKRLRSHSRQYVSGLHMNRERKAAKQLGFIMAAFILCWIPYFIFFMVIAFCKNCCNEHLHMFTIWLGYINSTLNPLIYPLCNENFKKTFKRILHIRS
T7 sequence (P61073 whole entry): as the sequence (P61073 whole entry) above
T7 sequence (P21730 whole entry): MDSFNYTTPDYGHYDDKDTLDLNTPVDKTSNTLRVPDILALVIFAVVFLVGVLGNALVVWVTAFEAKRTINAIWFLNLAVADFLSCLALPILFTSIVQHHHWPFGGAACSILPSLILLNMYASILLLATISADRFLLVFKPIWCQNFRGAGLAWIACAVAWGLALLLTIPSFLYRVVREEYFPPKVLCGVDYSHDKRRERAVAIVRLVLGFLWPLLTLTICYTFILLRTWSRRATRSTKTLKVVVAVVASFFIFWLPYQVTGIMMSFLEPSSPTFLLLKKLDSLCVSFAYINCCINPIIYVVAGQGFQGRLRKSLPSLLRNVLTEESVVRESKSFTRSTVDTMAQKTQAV
T3 sequence (P61073 whole entry): as the sequence (P61073 whole entry) above
T3 sequence (P29371 whole entry): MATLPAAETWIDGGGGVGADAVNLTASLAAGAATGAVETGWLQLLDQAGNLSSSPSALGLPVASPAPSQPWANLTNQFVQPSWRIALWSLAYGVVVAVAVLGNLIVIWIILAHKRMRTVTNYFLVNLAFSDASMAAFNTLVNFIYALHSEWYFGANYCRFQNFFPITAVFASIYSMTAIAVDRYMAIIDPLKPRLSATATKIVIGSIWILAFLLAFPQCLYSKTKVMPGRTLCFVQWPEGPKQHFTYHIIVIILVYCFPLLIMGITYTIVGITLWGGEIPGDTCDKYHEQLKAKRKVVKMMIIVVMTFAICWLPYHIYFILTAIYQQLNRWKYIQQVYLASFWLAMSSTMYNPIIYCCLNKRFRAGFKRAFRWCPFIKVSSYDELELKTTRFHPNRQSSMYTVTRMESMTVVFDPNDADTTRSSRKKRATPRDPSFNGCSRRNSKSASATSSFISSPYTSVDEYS
T6 sequence (P61073 whole entry): as the sequence (P61073 whole entry) above
T6 sequence (P24530 27-442): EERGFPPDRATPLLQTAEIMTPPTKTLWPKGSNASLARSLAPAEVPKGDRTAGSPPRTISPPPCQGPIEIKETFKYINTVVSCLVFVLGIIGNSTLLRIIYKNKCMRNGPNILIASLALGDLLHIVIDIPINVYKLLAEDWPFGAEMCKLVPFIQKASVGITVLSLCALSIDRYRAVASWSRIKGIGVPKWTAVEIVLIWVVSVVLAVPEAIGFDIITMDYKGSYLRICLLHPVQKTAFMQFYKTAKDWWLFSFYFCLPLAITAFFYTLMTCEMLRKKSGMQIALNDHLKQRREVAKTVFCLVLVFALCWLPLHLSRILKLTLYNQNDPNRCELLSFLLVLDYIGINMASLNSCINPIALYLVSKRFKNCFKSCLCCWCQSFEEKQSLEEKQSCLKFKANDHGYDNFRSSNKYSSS

Usually IC50 stands for the concentration that gives 50% inhibition. Take `N=C(N)NCCC[C@H](NC(=O)[C@@H]1CSSC[C@H](NC(=O)[C@H](Cc2ccc3ccccc3c2)NC(=O)[C@H](CCCNC(=N)N)NC(=O)[C@H](CCCNC(=N)N)NC(=O)c2ccc(F)cc2)C(=O)N[C@@H](Cc2ccc(O)cc2)C(=O)N[C@@H](CCCNC(N)=O)C(=O)N[C@@H](CCCCN)C(=O)N[C@H](CCCCN)C(=O)N2CCC[C@H]2C(=O)N[C@@H](Cc2ccc(O)cc2)C(=O)N[C@@H](CCCNC(=N)N)C(=O)N[C@@H](CCCNC(N)=O)C(=O)N1)C(N)=O` [BKT140] ({Benzoyl(4-F)}-RR[2Nal]CY[Cit]K[dK]PYR[Cit]CR-NH2; disulfide 4-13; C-terminus assumed): the IC50 is 1040 ± 757 nM on CXCR4-CALCR heteromer; 644 ± 163 nM at CXCR4-MLNR heteromer; 232 ± 91.9 nM on CXCR4-HRH1 heteromer; 1500 ± 420 nM at CXCR4-TACR3 heteromer; 434 ± 4.38 nM at CXCR4; 213 ± 143 nM in experiment [1]. Further, the IC50 at CXCR4-ADRB2 heteromer (CXCR4 + ADRB2 (−Carvedilol) IC50 of Ca2+ response, stimulated with CXCL12 20 nM and Salmeterol 1 μM) turned out to be 130 ± 49.8 nM; on CXCR4-ADRB2 heteromer (Table 7, CXCL12 20 nM and Salmeterol 1 μM, read-out: IC50 of Ca2+ response, ADRB2 inhibitor: None), 124 ± 76.9 nM; on CXCR4-EDNRB heteromer it was 2680 ± 3930 nM; on CXCR4-C5AR1 heteromer, 118 ± 56.5 nM.
